Results on 28 compounds are retold here after patent US20230365592A1 (Agios Pharmaceuticals, Inc., priority 2022, published 2023).

Bounds are passed on as bounds.

One test concerns the target T1, human PAH with the R408W mutation (Homo sapiens, UniProt P00439, R408W).
T1 construct: expressed in transfected cells
T1 sequence (P00439 1-452 R408W): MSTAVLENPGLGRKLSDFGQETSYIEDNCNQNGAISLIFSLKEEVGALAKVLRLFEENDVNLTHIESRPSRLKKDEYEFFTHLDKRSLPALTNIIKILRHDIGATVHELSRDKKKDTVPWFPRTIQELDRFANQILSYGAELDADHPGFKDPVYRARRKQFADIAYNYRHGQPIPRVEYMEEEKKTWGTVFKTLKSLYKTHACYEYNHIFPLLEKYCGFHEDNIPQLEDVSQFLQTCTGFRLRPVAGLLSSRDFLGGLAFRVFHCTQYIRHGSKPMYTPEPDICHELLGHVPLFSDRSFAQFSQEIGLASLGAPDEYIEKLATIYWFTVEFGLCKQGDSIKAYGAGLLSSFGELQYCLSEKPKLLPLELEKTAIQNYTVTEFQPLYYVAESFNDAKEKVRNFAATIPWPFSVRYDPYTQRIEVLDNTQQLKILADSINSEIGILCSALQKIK
Put plainly: Cell Based Phenylalanine Flux Assay.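 Note: after compound treatment, cells received sepiapterin plus isotope-labelled Phenylalanine for 4 hours, then labelled Tyrosine in the medium was quantified, 10-point 2-fold dilution series run in duplicate.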 Particulars: A375 cells expressing R408W PAH; 24 hrs with compound, then 20 µM sepiapterin and 800 µM 13C9,15N-Phenylalanine for 4 hours; 13C-Tyrosine by LC-MS; average where tested multiple times; read-out: AC50.
Broadly, the AC50 is the concentration giving half of the maximal activity seen. Turning to `Fc1cccc2cc(C3c4nc[nH]c4CCN3c3ncccn3)nn12` (stereo not shown), the AC50 was 1 to 5 µM. Same read-out and setting: in the case of `CC(C)(F)c1nnc(C(=O)N2CCc3[nH]cnc3C2c2cc3ccccn3n2)o1` (stereo not shown) it was 1 to 5 µM; in that of `Fc1ncccc1-c1nnc(N2CCc3[nH]cnc3C2c2cc3c(C(F)F)cccn3n2)o1` (stereo not shown), 1 to 5 µM. With `Cc1nnc(C(=O)N2CCc3[nH]cnc3C2c2cc3cccc(F)n3n2)o1` (stereo not shown), the AC50 fell in the range of 1 to 5 µM. Regarding `c1ccn2nc(C3c4nc[nH]c4CCN3c3nnc(-c4ccncn4)o3)cc2c1` (stereo not shown), the AC50 was > 5 µM.

The same test, now with this note: A375 cells expressing human PAH R408W; 24 hrs compound incubation; 13C-Tyrosine by LC-MS; average where tested multiple times; read-out: AC50.
As for `CC(C)c1cccn2nc([C@@H]3c4nc[nH]c4CCN3C(=O)c3nnc(-c4ncccn4)o3)cc12` [Example 1981, (S)-(4-(4-isopropylpyrazolo[1,5-a]pyridin-2-yl)-1,4,6,7-tetrahydro-5H-imidazo[4,5-c]pyridin-5-yl)(5-(pyrimidin-2-yl)-1,3,4-oxadiazol-2-yl)methanone], the AC50 was 0.5 to 1 µM. Take `Cc1cccc2cc([C@@H]3c4nc[nH]c4CCN3c3nnc(-c4cccnc4F)o3)nn12` [Example 2274, (S)-2-(2-fluoropyridin-3-yl)-5-(4-(7-methylpyrazolo[1,5-a]pyridin-2-yl)-1,4,6,7-tetrahydro-5H-imidazo[4,5-c]pyridin-5-yl)-1,3,4-oxadiazole]: the AC50 was in the range of 0.5 to 1 µM. Same read-out and setting: in the case of `CC(C)(O)c1nnc(C(=O)N2CCc3[nH]cnc3[C@H]2c2cc3c(Cl)cccn3n2)o1` [Example 2378, (S)-(4-(4-chloropyrazolo[1,5-a]pyridin-2-yl)-6,7-dihydro-1H-imidazo[4,5-c]pyridin-5(4H)-yl)(5-(2-hydroxypropan-2-yl)-1,3,4-oxadiazol-2-yl)methanone] it was 1 to 5 µM.

With `Cc1cccc(-c2nnc(N3CCc4[nH]cnc4[C@H]3c3cc4c(C5CC5)cccn4n3)o2)n1` [Example 2359, (S)-2-(4-(4-cyclopropylpyrazolo[1,5-a]pyridin-2-yl)-1,4,6,7-tetrahydro-5H-imidazo[4,5-c]pyridin-5-yl)-5-(6-methylpyridin-2-yl)-1,3,4-oxadiazole], the AC50 was 0.5 to 1 µM. Take `COc1cccn2nc([C@H]3c4nc[nH]c4CCN3c3ncccn3)cc12` [Example 2298, (R)-4-(4-methoxypyrazolo[1,5-a]pyridin-2-yl)-5-(pyrimidin-2-yl)-4,5,6,7-tetrahydro-1H-imidazo[4,5-c]pyridine]: the AC50 is 1 to 5 µM. Turning to `CN(C)c1ccc2c(C(=O)N3CCc4[nH]cnc4[C@H]3c3cc4cccc(Cl)n4n3)cnn2c1` [Example 2474, (S)-(4-(7-chloropyrazolo[1,5-a]pyridin-2-yl)-6,7-dihydro-1H-imidazo[4,5-c]pyridin-5(4H)-yl)(6-(dimethylamino)pyrazolo[1,5-a]pyridin-3-yl)methanone], the AC50 was 1 to 5 µM.

The test is the same for the next values; noted with them: A375 cells expressing human R408W PAH; 24 hrs compound incubation; 13C-Tyrosine by LC-MS; average where tested multiple times; read-out: AC50.
With `Cc1cccn2nc([C@H]3c4nc[nH]c4CCN3C(=O)c3nnc(-c4cnn(C(F)(F)F)c4)o3)cc12` [Example 1473, (R)-(4-(4-methylpyrazolo[1,5-a]pyridin-2-yl)-6,7-dihydro-1H-imidazo[4,5-c]pyridin-5(4H)-yl)(5-(1-(trifluoromethyl)-1H-pyrazol-4-yl)-1,3,4-oxadiazol-2-yl)methanone], the AC50 fell in the range of 1 to 5 µM. As for `Cc1ncoc1C(=O)N1CCc2[nH]cnc2[C@@H]1c1cc2c(C)cccn2n1` [Example 771, (R)-(4-methyloxazol-5-yl)(4-(4-methylpyrazolo[1,5-a]pyridin-2-yl)-6,7-dihydro-1H-imidazo[4,5-c]pyridin-5(4H)-yl)methanone], the AC50 was in the range of 1 to 5 µM. For the compound “(S)-(5-(2-fluoropropan-2-yl)-1,3.4-oxadiazol-2-yl)(4-(7-fluoropyrazolo[1,5-a]pyridin-2-yl)-6,7-dihydro-1H-imidazo[4,5-c(pyridin-5(4H)-yl)methanone [Example 1256]”, the AC50 is < 0.5 µM.

Take `Cc1nn(C)cc1-c1nnc(C(=O)N2CCc3[nH]cnc3[C@@H]2c2cc3c(F)cccn3n2)o1` [Example 847, (R)-(5-(1,3-dimethyl-1H-pyrazol-4-yl)-1,3,4-oxadiazol-2-yl)(4-(4-fluoropyrazolo[1,5-a]pyridin-2-yl)-6,7-dihydro-1H-imidazo[4,5-c]pyridin-5(4H)-yl)methanone]: the half-maximal activity concentration (AC50) was > 5 µM. With `O=C(c1nnc(-c2ncccc2F)o1)N1CCc2[nH]cnc2[C@H]1c1cc2cccc(C(F)(F)F)n2n1` [Example 1034, (S)-(5-(3-fluoropyridin-2-yl)-1,3,4-oxadiazol-2-yl)(4-(7-(trifluoromethyl)pyrazolo[1,5-a]pyridin-2-yl)-6,7-dihydro-1H-imidazo[4,5-c]pyridin-5(4H)-yl)methanone], the AC50 lay in the range of 0.5 to 1 µM. On the same count and under the same terms, for `Cc1ncoc1C(=O)N1CCc2[nH]cnc2[C@H]1c1cc2c(F)cccn2n1` [Example 774, (S)-(4-(4-fluoropyrazolo[1,5-a]pyridin-2-yl)-6,7-dihydro-1H-imidazo[4,5-c]pyridin-5(4H)-yl)(4-methyloxazol-5-yl)methanone] the value was < 0.5 µM; for `O=C(c1nnc(-c2cccnc2)o1)N1CCc2[nH]cnc2[C@H]1c1cc2cccc(F)n2n1` [Example 1522, (S)-(4-(7-fluoropyrazolo[1,5-a]pyridin-2-yl)-6,7-dihydro-1H-imidazo[4,5-c]pyridin-5(4H)-yl)(5-(pyridin-3-yl)-1,3,4-oxadiazol-2-yl)methanone], < 0.5 µM; for `COc1ccc(-c2nnc(C(=O)N3CCc4[nH]cnc4[C@@H]3c3cc4c(Cl)cccn4n3)o2)nc1` [Example 1298, (R)-(4-(4-chloropyrazolo[1,5-a]pyridin-2-yl)-6,7-dihydro-1H-imidazo[4,5-c]pyridin-5(4H)-yl)(5-(5-methoxypyridin-2-yl)-1,3,4-oxadiazol-2-yl)methanone], 1 to 5 µM. Consider `Cc1ncccc1-c1nnc(C(=O)N2CCc3[nH]cnc3[C@@H]2c2cc3cccc(C(F)(F)F)n3n2)o1` [Example 1343, (R)-(5-(2-methylpyridin-3-yl)-1,3,4-oxadiazol-2-yl)(4-(7-(trifluoromethyl)pyrazolo[1,5-a]pyridin-2-yl)-6,7-dihydro-1H-imidazo[4,5-c]pyridin-5(4H)-yl)methanone], for which the AC50 fell in the range of 1 to 5 µM.

As to `O=C(c1nnc(-c2ccn(C(F)F)n2)o1)N1CCc2[nH]cnc2[C@H]1c1cc2c(C(F)(F)F)cccn2n1` [Example 909, (S)-(5-(1-(difluoromethyl)-1H-pyrazol-3-yl)-1,3,4-oxadiazol-2-yl)(4-(4-(trifluoromethyl)pyrazolo[1,5-a]pyridin-2-yl)-6,7-dihydro-1H-imidazo[4,5-c]pyridin-5(4H)-yl)methanone], the AC50 was < 0.5 µM. Same read-out and setting: in the case of `O=C(c1cnn2cc(C3CC3)ccc12)N1CCc2[nH]cnc2[C@@H]1c1cc2c(Cl)cccn2n1` [Example 1769, (R)-(4-(4-chloropyrazolo[1,5-a]pyridin-2-yl)-6,7-dihydro-1H-imidazo[4,5-c]pyridin-5(4H)-yl)(6-cyclopropylpyrazolo[1,5-a]pyridin-3-yl)methanone] it was 1 to 5 µM; in that of `Cc1nc(C(C)(C)F)oc1C(=O)N1CCc2[nH]cnc2[C@H]1c1cc2c(C)cccn2n1` [Example 1260, (S)-(2-(2-fluoropropan-2-yl)-4-methyloxazol-5-yl)(4-(4-methylpyrazolo[1,5-a]pyridin-2-yl)-6,7-dihydro-1H-imidazo[4,5-c]pyridin-5(4H)-yl)methanone], < 0.5 µM. For the compound `Cc1cccn2nc([C@@H]3c4nc[nH]c4CCN3C(=O)c3cnn4cc(-c5ccccn5)ccc34)cc12` [Example 1648, (S)-(4-(4-methylpyrazolo[1,5-a]pyridin-2-yl)-6,7-dihydro-1H-imidazo[4,5-c]pyridin-5(4H)-yl)(6-(pyridin-2-yl)pyrazolo[1,5-a]pyridin-3-yl)methanone], the AC50 was in the range of 0.5 to 1 µM. On the same count and under the same terms, in the case of `O=C(c1nnc(-c2ccn(C(F)F)n2)o1)N1CCc2[nH]cnc2[C@@H]1c1cc2c(F)cccn2n1` [Example 824, (R)-(5-(1-(difluoromethyl)-1H-pyrazol-3-yl)-1,3,4-oxadiazol-2-yl)(4-(4-fluoropyrazolo[1,5-a]pyridin-2-yl)-6,7-dihydro-1H-imidazo[4,5-c]pyridin-5(4H)-yl)methanone] it was > 5 µM; in that of `CC(C)(F)c1nnc(C(=O)N2CCc3[nH]cnc3[C@@H]2c2cc3c(Cl)cccn3n2)o1` [Example 1108, (R)-(4-(4-chloropyrazolo[1,5-a]pyridin-2-yl)-6,7-dihydro-1H-imidazo[4,5-c]pyridin-5(4H)-yl)(5-(2-fluoropropan-2-yl)-1,3,4-oxadiazol-2-yl)methanone], > 5 µM.

For the compound `CC(C)(F)c1nc(C(F)F)c(C(=O)N2CCc3[nH]cnc3[C@@H]2c2cc3c(F)cccn3n2)o1` [Example 1227, (R)-(4-(difluoromethyl)-2-(2-fluoropropan-2-yl)oxazol-5-yl)(4-(4-fluoropyrazolo[1,5-a]pyridin-2-yl)-6,7-dihydro-1H-imidazo[4,5-c]pyridin-5(4H)-yl)methanone], the AC50 lay in the range of 0.5 to 1 µM. Consider `O=C(c1nnc(-c2ccc(F)c(F)c2)o1)N1CCc2[nH]cnc2[C@H]1c1cc2ccccn2n1` [Example 648, (S)-(5-(3,4-difluorophenyl)-1,3,4-oxadiazol-2-yl)(4-(pyrazolo[1,5-a]pyridin-2-yl)-6,7-dihydro-1H-imidazo[4,5-c]pyridin-5(4H)-yl)methanone], for which the AC50 was < 0.5 µM.
